Assay: hair relaxing with resorcinol under the conditions of M. Wong et al.
Conditions: resorcinol at a concentration of 40% and at a pH of 7
Excerpt: The use of resorcinol at a concentration of 40% and at a pH of 7 for relaxing the hair has been reported by M. Wong et al.: M. Wong, G. Vis-surel, and J. Epps J. Soc. Cosmet. Chem. (1994), 45, 347-352.

For `Oc1cccc(O)c1` [resorcinol], the “relaxing of the hair” value was “do not relax it, but lead, at the very best, to slight uncurling”.

From patent publication US8765107B2, “Process for straightening keratin fibres with a heating means and denaturing agents” (L'Oreal, priority 2006, dated 2014)
